Test results as given in ChEMBL document CHEMBL1201861, “Genomics of Drug Sensitity in Cancer screening data, Wellcome Trust Sanger Institute”.

Columns and labels:
DG-75 = experiment: cells; format: functional, cell-based, Homo sapiens; details: Homo sapiens, DG-75;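 note: growth inhibition of DG-75 cells, read out with a cell viability assay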
Description: SANGER: Inhibition of human DG-75 cell growth in a cell viability assay.

CWR22R = experiment: cells; format: functional, cell-based; details: Homo sapiens, 22Rv1;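 note: growth inhibition of 22Rv1 cells, read out with a cell viability assay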
Description: SANGER: Inhibition of human 22RV1 cell growth in a cell viability assay.

SW1417 = experiment: cells; format: functional, cell-based; details: Homo sapiens;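 note: growth inhibition of human SW1417 cells, read out with a cell viability assay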
Description: SANGER: Inhibition of human SW1417 cell growth in a cell viability assay.

LN-405 = experiment: cells; format: functional, cell-based; details: Homo sapiens
Description: SANGER: Inhibition of human LN-405 cell growth in a cell viability assay.

MIA PaCa-2 = experiment: cells; format: functional, cell-based; details: Homo sapiens;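 note: growth inhibition of MIA PaCa-2 cells, read out with a cell viability assay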
Description: SANGER: Inhibition of human MIA-PaCa-2 cell growth in a cell viability assay.

CAKI-1 = experiment: cells; format: functional, cell-based; details: Homo sapiens;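 note: growth inhibition of CAKI-1 cells, measured by a cell viability assay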
Description: SANGER: Inhibition of human CAKI-1 cell growth in a cell viability assay.

MeWo = experiment: cells; format: functional, cell-based; details: Homo sapiens;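 note: growth inhibition of MeWo cells, determined by a cell viability readout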
Description: SANGER: Inhibition of human Mewo cell growth in a cell viability assay.

A2058 = experiment: cells; format: functional, cell-based; details: Homo sapiens;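 note: reduction of A2058 cell growth, read out with a viability assay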
Description: SANGER: Inhibition of human A2058 cell growth in a cell viability assay.

NCI-H1882 = experiment: cells; format: functional, cell-based, Homo sapiens; details: Homo sapiens, NCI-H1882;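 note: growth inhibition of the cell line, determined with a viability assay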
Description: SANGER: Inhibition of human NCI-H1882 cell growth in a cell viability assay.

TYK-nu = experiment: cells; format: functional, cell-based; details: Homo sapiens;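 note: growth inhibition of human TYK-nu cells, read out by a cell viability assay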
Description: SANGER: Inhibition of human TYK-nu cell growth in a cell viability assay.

CAL-72 = experiment: cells; format: functional, cell-based; details: Homo sapiens;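 note: cell viability assay measuring inhibition of proliferation in the CAL-72 cell line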
Description: SANGER: Inhibition of human CAL-72 cell growth in a cell viability assay.

HT1197 = experiment: cells; format: functional, cell-based, HT-1197; details: Homo sapiens
Description: SANGER: Inhibition of human HT-1197 cell growth in a cell viability assay.

HSC-3 = experiment: cells; format: functional, cell-based; details: Homo sapiens
Description: SANGER: Inhibition of human HSC-3 cell growth in a cell viability assay.

A204 = experiment: cells; format: functional, cell-based; details: Homo sapiens;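 note: growth inhibition of human A204 cells, read out with a cell viability assay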
Description: SANGER: Inhibition of human A204 cell growth in a cell viability assay.

CPC-N = experiment: cells; format: functional, cell-based, Homo sapiens; details: Homo sapiens, CPC-N;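 note: growth inhibition of CPC-N cells, with a cell viability assay as the readout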
Description: SANGER: Inhibition of human CPC-N cell growth in a cell viability assay.

GMS-10 = experiment: cells; format: functional, cell-based; details: Homo sapiens;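 note: growth inhibition of GMS-10 cells, read out as cell viability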
Description: SANGER: Inhibition of human GMS-10 cell growth in a cell viability assay.

MFH-ino = experiment: cells; format: functional, cell-based, Homo sapiens; details: Homo sapiens, MFH-ino;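 note: growth inhibition of human MFH-ino cells, read out by a cell viability assay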
Description: SANGER: Inhibition of human MFH-ino cell growth in a cell viability assay.

SW-620 = experiment: cells; format: functional, cell-based; details: Homo sapiens;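 note: growth inhibition of human SW-620 cells, measured by a cell viability assay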
Description: SANGER: Inhibition of human SW620 cell growth in a cell viability assay.

OAW-28 = experiment: cells; format: functional, cell-based; details: Homo sapiens;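 note: growth inhibition of OAW-28 cells, read out with a cell viability assay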
Description: SANGER: Inhibition of human OAW-28 cell growth in a cell viability assay.

MONO-MAC-6 = experiment: cells; format: functional, cell-based, Homo sapiens; details: Homo sapiens, MONO-MAC-6;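 note: cell viability assay measuring growth inhibition of human MONO-MAC-6 cells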
Description: SANGER: Inhibition of human MONO-MAC-6 cell growth in a cell viability assay.

EB2 = experiment: cells; format: functional, cell-based, Homo sapiens; details: Homo sapiens, EB2;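 note: growth inhibition of EB2 cells, read out with a cell viability assay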
Description: SANGER: Inhibition of human EB2 cell growth in a cell viability assay.

BT-20 = experiment: cells; format: functional, cell-based; details: Homo sapiens;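 note: cell viability assay measuring suppression of growth in human BT-20 cells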
Description: SANGER: Inhibition of human BT-20 cell growth in a cell viability assay.

MEL-HO = experiment: cells; format: functional, cell-based; details: Homo sapiens
Description: SANGER: Inhibition of human MEL-HO cell growth in a cell viability assay.

HEC-1 = experiment: cells; format: functional, cell-based; details: Homo sapiens;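 note: growth inhibition of the cell line, read out with a cell viability assay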
Description: SANGER: Inhibition of human HEC-1 cell growth in a cell viability assay.

KYSE-410 = experiment: cells; format: functional, cell-based; details: Homo sapiens;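 note: growth inhibition of KYSE-410 cells, measured through a cell viability readout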
Description: SANGER: Inhibition of human KYSE-410 cell growth in a cell viability assay.

IST-SL2 = experiment: cells; format: functional, cell-based, Homo sapiens; details: Homo sapiens, IST-SL2;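 note: growth inhibition of human IST-SL2 cells, read out by a cell viability assay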
Description: SANGER: Inhibition of human IST-SL2 cell growth in a cell viability assay.

SK-MM-2 = experiment: cells; format: functional, cell-based, Homo sapiens; details: Homo sapiens, SK-MM-2;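 note: growth inhibition of human SK-MM-2 cells, read out with a cell viability assay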
Description: SANGER: Inhibition of human SK-MM-2 cell growth in a cell viability assay.

NCI-H1993 = experiment: cells; format: functional, cell-based; details: Homo sapiens;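 note: growth inhibition of the cancer cell line, assessed with a cell viability assay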
Description: SANGER: Inhibition of human NCI-H1993 cell growth in a cell viability assay.

NCI-H2196 = experiment: cells; format: functional, cell-based, Homo sapiens; details: Homo sapiens, NCI-H2196; read-out: IC50;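 note: cell viability assay used as the readout of growth inhibition in NCI-H2196 cells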
Description: SANGER: Inhibition of human NCI-H2196 cell growth in a cell viability assay.

SNU-423 = experiment: cells; format: functional, cell-based; details: Homo sapiens
Description: SANGER: Inhibition of human SNU-423 cell growth in a cell viability assay.

WSU-NHL = experiment: cells; format: functional, cell-based, Homo sapiens; details: Homo sapiens, WSU-NHL;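 note: growth inhibition of human WSU-NHL cells, read out with a cell viability assay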
Description: SANGER: Inhibition of human WSU-NHL cell growth in a cell viability assay.

LC-1F = experiment: cells; format: functional, cell-based, Homo sapiens; details: Homo sapiens, LC-1F;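 note: growth inhibition of human LC-1F cells, read out with a cell viability assay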
Description: SANGER: Inhibition of human LC-1F cell growth in a cell viability assay.

M059J = experiment: cells; format: functional, cell-based; details: Homo sapiens;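 note: growth inhibition of M059J cells, read out with a cell viability assay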
Description: SANGER: Inhibition of human M059J cell growth in a cell viability assay.

Capan-2 = experiment: cells; format: functional, cell-based; details: Homo sapiens;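 note: Capan-2 cell growth inhibition, read out with a viability assay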
Description: SANGER: Inhibition of human Capan-2 cell growth in a cell viability assay.

YT = experiment: cells; format: functional, cell-based, Homo sapiens; details: Homo sapiens, YT
Description: SANGER: Inhibition of human YT cell growth in a cell viability assay.

EFO-21 = experiment: cells; format: functional, cell-based; details: Homo sapiens;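 note: growth inhibition of EFO-21 cells measured with a viability assay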
Description: SANGER: Inhibition of human EFO-21 cell growth in a cell viability assay.

HSC-4 = experiment: cells; format: functional, cell-based; details: Homo sapiens;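 note: growth inhibition of human HSC-4 cells, read out with a cell viability assay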
Description: SANGER: Inhibition of human HSC-4 cell growth in a cell viability assay.

DMS-79 = experiment: cells; format: functional, cell-based, Homo sapiens; details: Homo sapiens, DMS-79
Description: SANGER: Inhibition of human DMS-79 cell growth in a cell viability assay.

SJRH30 = experiment: cells; format: functional, cell-based; details: Homo sapiens;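 note: growth inhibition of human SJRH30 cells, read out with a cell viability assay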
Description: SANGER: Inhibition of human SJRH30 cell growth in a cell viability assay.

SN12C = experiment: cells; format: functional, cell-based; details: Homo sapiens;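 note: growth inhibition of human SN12C cells, measured by a cell viability assay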
Description: SANGER: Inhibition of human SN12C cell growth in a cell viability assay.

UACC-62 = experiment: cells; format: functional, cell-based; details: Homo sapiens;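 note: growth inhibition of human UACC-62 cells, read out by a cell viability assay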
Description: SANGER: Inhibition of human UACC-62 cell growth in a cell viability assay.

BHY = experiment: cells; format: functional, cell-based; details: Homo sapiens;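 note: cell growth inhibition read out by a viability assay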
Description: SANGER: Inhibition of human BHY cell growth in a cell viability assay.

MDA-MB-361 = experiment: cells; format: functional, cell-based; details: Homo sapiens
T-24 = experiment: cells; format: functional, cell-based; details: Homo sapiens;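 note: growth inhibition of T-24 cells, read out with a cell viability assay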
Description: SANGER: Inhibition of human T-24 cell growth in a cell viability assay.

Calu-3 = experiment: cells; format: functional, cell-based; details: Homo sapiens;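 note: growth inhibition of human Calu-3 cells, determined with a cell viability assay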
Description: SANGER: Inhibition of human Calu-3 cell growth in a cell viability assay.

G-401 = experiment: cells; format: functional, cell-based; details: Homo sapiens
Description: SANGER: Inhibition of human G-401 cell growth in a cell viability assay.

COR-L279 = experiment: SANGER: Inhibition of human COR-L279 cell growth in a cell viability assay.; format: functional, cell-based; details: Homo sapiens, COR-L279
AGS = experiment: cells; format: functional, cell-based; details: Homo sapiens;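 note: growth inhibition of AGS cells, determined with a cell viability assay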
Description: SANGER: Inhibition of human AGS cell growth in a cell viability assay.

P12-Ichikawa = experiment: cells; format: functional, cell-based; details: Homo sapiens
SW780 = experiment: cells; format: functional, cell-based; details: Homo sapiens;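 note: growth inhibition of the cells, read out with a cell viability assay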
Description: SANGER: Inhibition of human SW780 cell growth in a cell viability assay.

SCC-3 = experiment: cells; format: functional, cell-based, Homo sapiens; details: Homo sapiens, SCC-3;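 note: cell viability assay measuring inhibition of SCC-3 cell growth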
Description: SANGER: Inhibition of human SCC-3 cell growth in a cell viability assay.

SK-OV-3 = experiment: cells; format: functional, cell-based; details: Homo sapiens;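 note: growth inhibition of SK-OV-3 human cells, read out with a cell viability assay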
Description: SANGER: Inhibition of human SK-OV-3 cell growth in a cell viability assay.

RO82-W-1 = experiment: cells; format: functional, cell-based; details: Homo sapiens;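 note: growth inhibition of human RO82-W-1 cells, measured with a cell viability assay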
Description: SANGER: Inhibition of human RO82-W-1 cell growth in a cell viability assay.

Hs-578T = experiment: cells; format: functional, cell-based; details: Homo sapiens
Description: SANGER: Inhibition of human Hs-578-T cell growth in a cell viability assay.

NCI-H1693 = experiment: cells; format: functional, cell-based; details: Homo sapiens;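 note: growth inhibition of the human cell line, read out with a cell viability assay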
Description: SANGER: Inhibition of human NCI-H1693 cell growth in a cell viability assay.

MDA-MB-175-VII = experiment: cells; format: functional, cell-based; details: Homo sapiens
NCI-H1417 = experiment: cells; format: functional, cell-based, Homo sapiens; details: Homo sapiens, NCI-H1417;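 note: human NCI-H1417 cells, growth inhibition determined with a cell viability readout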
Description: SANGER: Inhibition of human NCI-H1417 cell growth in a cell viability assay.

RT-112 = experiment: cells; format: functional, cell-based; details: Homo sapiens
Description: SANGER: Inhibition of human RT-112 cell growth in a cell viability assay.

HT-3 = experiment: cells; format: functional, cell-based; details: Homo sapiens;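 note: growth inhibition measured with a cell viability readout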
Description: SANGER: Inhibition of human HT-3 cell growth in a cell viability assay.

CCCCCCCCCCCC1=C(O)C(=O)C=C(O)C1=O [EMBELIN]
IC50 (DG-75): > 32 µM | IC50 (CWR22R): 22.5 µM | IC50 (SW1417): > 32 µM | IC50 (LN-405): 18.8 µM | IC50 (MIA PaCa-2): 4.7 µM | IC50 (CAKI-1): > 32 µM | IC50 (MeWo): 15.9 µM | IC50 (A2058): 2.32 µM | IC50 (NCI-H1882): > 32 µM | IC50 (TYK-nu): 22.6 µM | IC50 (CAL-72): 10.4 µM | IC50 (HT1197): 25.3 µM | IC50 (HSC-3): 23.9 µM | IC50 (A204): 17.4 µM | IC50 (CPC-N): > 32 µM | IC50 (GMS-10): 23 µM | IC50 (MFH-ino): 5.58 µM | IC50 (SW-620): 28.8 µM | IC50 (OAW-28): 20 µM | IC50 (MONO-MAC-6): 21.8 µM | IC50 (EB2): 6.17 µM | IC50 (BT-20): 14.5 µM | IC50 (MEL-HO): 5.11 µM | IC50 (HEC-1): 13 µM | IC50 (KYSE-410): 6.38 µM | IC50 (IST-SL2): > 32 µM | IC50 (SK-MM-2): > 32 µM | IC50 (NCI-H1993): > 32 µM | IC50 (NCI-H2196): > 32 µM | IC50 (SNU-423): > 32 µM | IC50 (WSU-NHL): 13.6 µM | IC50 (LC-1F): 31.2 µM | IC50 (M059J): 13.1 µM | IC50 (Capan-2): 18.3 µM | IC50 (YT): 12.8 µM | IC50 (EFO-21): 15.6 µM | IC50 (HSC-4): 11.1 µM | IC50 (DMS-79): > 32 µM | IC50 (SJRH30): 7.97 µM | IC50 (SN12C): 26.6 µM | IC50 (UACC-62): 1.75 µM | IC50 (BHY): 6.03 µM | IC50 (MDA-MB-361): 19.6 µM | IC50 (T-24): > 32 µM | IC50 (Calu-3): 8.45 µM | IC50 (G-401): 8.32 µM | IC50 (COR-L279): > 32 µM | IC50 (AGS): 8.63 µM | IC50 (P12-Ichikawa): 9.45 µM | IC50 (SW780): > 32 µM | IC50 (SCC-3): > 32 µM | IC50 (SK-OV-3): 10.9 µM | IC50 (RO82-W-1): > 32 µM | IC50 (Hs-578T): 11.1 µM | IC50 (NCI-H1693): > 32 µM | IC50 (MDA-MB-175-VII): > 32 µM | IC50 (NCI-H1417): > 32 µM | IC50 (RT-112): 12.6 µM | IC50 (HT-3): 27.6 µM
